Tests used:
[1] = system: cathepsin D (E2/ER-regulated gene) in MCF-7 cells; assay: cathepsin D protein expression in MCF-7 cells; assay type: cell-based, human; conditions: 24-hr exposure to E2 (10 nM)
Method: FIG. 7 depicts the ability of compounds 4631-P/1 and 35466-L/1 to inhibit the expression of an ER-regulated gene. Cathepsin D was used as a prototype E2/ER-regulated gene.
For Western blotting, after the indicated treatment(s), cells were harvested, and whole-cell lysates were prepared using RIPA buffer (Santa Cruz). Equal aliquots of whole-cell protein (either 100 μg unprecipitated whole-cell lysate or one half of the precipitated protein from 500 μg whole-cell lysate) were electrophoresed on 4-12% SDS-polyacrylamide gradient gels, transferred to nitrocellulose membranes (Millipore, Bedford, Mass.), and blotted using primary antibodies directed against BRCA1 (C-20, rabbit polyclonal, 1:200 dilution; Santa Cruz), ER (F10, mouse monoclonal, sc-8002, 1:500; Santa Cruz), and actin (goat polyclonal, catalog item sc-1615, 1:400; Santa Cruz). The membranes were then blotted with the appropriate secondary antibodies (1:1000; Santa Cruz), and the blotted proteins were visualized using an electrochemiluminescence (ECL) detection system (Amersham Biosciences), with colored markers (Bio-Rad Laboratories, Hercules, Calif.) as molecular size standards.

[2] = system: progesterone receptor (PR) activity in T47D cells; assay: MMTV-Luc reporter assay for PR activity in T47D cells; assay type: cell-based, human; conditions: R5020 10 nM
Method: FIG. 10 depicts that the inhibition of ER activity by these six compounds is not to due to non-specific cytotoxicity, since cell viability remained over 80% after a 24-hr exposure to 1 μM of each of the compounds (A). One of the compounds was tested for its ability to inhibit progestin-stimulated progesterone receptor (PR) activity in a PR+ human breast cancer cell line (T47D), using the MMTV-Luc reporter as a readout for PR activity (B). Here, PR activity was stimulated over 20-fold by the synthetic progestin R5020 (10 nM), but compound 4631-P/1 had no effect on PR activity at either 1 μM or 20 μM.
Progesterone receptor (PR) transcriptional activity assays were carried out in T47D cells using the synthetic progestin R5020 (10 nM) to activate PR and the MMTV-Luc reporter as a readout for PR activity.
Subconfluent proliferating MCF-7 cells were treated with vehicle (DMSO) or with the a sensitizing compound for 24 hours and then assayed for cell viability using MTT dye reduction assays. […] Subconfluent proliferating T47D cells were also transfected overnight with a progesterone-responsive reporter (MMTV-Luc) and then exposed to a synthetic progestin (R5020, 10 nM) for 24 hours in the absence or presence of compound 4631 P/1, as indicated.

[3] = system: BRCA1 protein levels; assay: siRNA efficacy validation by Western blotting; assay type: cell-based; conditions: minimum 48 hr exposure to 100 nM siRNA
Method: (catalog number: 43924220, Ambion/Life Technologies; and negative control-siRNA (catalog number: AM4461, Ambion). The efficacy of the ER-siRNA was validated by Western blotting. For siRNA treatments, subconfluent cells were treated with ER-specific or control siRNAs (final concentration of 100 nM) using siPORT Amine transfection reagent (Ambion), according to the manufacturer's instructions.

[4] = system: ER activity in LCC9 cells; assay: ERE-TK-Luc reporter assay in LCC9 cells; assay type: cell-based, human; conditions: Tam 5 μM, wtBRCA1 expression vector transfected
Method: FIG. 3 depicts the inhibition of ER activity in anti-estrogen resistant LCC9 cells. LCC9 cells in 24-well dishes were transfected overnight with the ERE-TK-Luc reporter plasmid (0.25 μg per well), washed, and allowed to recover for several hours in fresh culture medium. The cells were then treated with the indicated concentrations of the six bioactive compounds or vehicle only (DMSO) for 24 hr and assayed for luciferase activity. Luciferase activity is expressed as a percentage of the DMSO control. Values are means±SEMs of four replicate wells.
FIG. 8 depicts BRCA1 over-expression partially restores Tamoxifen sensitivity to anti-estrogen-resistant LCC9 cells. The effect of BRCA1 over-expression (by transfection of a wild-type (wt) full-length BRCA1 expression vector) was studied in E2-insensitive anti-estrogen resistant LCC9 human breast cancer cells with E2-sensitive/anti-estrogen sensitive MCF-7 breast cancer cells. The wtBRCA1 suppressed the constitutive ER activity (measured using the ERE-TK-Luc reporter as a readout), but Tam (5 μM) by itself had no effect on ER activity (A and B (left)). […] When MCF-7 cells were tested in the absence of E2, ER activity was very low under most conditions (illustrating the requirement for E2 to activate ER), but in the absence of E2, Tam functioned as an ER agonist and caused about a (5-6)-fold increase in ER activity (P<0.001). […]

[5] = system: ER activity in MCF-7 cells; assay: ERE-TK-Luc reporter assay in MCF-7 cells; assay type: cell-based, human
Description: FIG. 8 depicts BRCA1 over-expression partially restores Tamoxifen sensitivity to anti-estrogen-resistant LCC9 cells. The effect of BRCA1 over-expression (by transfection of a wild-type (wt) full-length BRCA1 expression vector) was studied in E2-insensitive anti-estrogen resistant LCC9 human breast cancer cells with E2-sensitive/anti-estrogen sensitive MCF-7 breast cancer cells. The wtBRCA1 suppressed the constitutive ER activity (measured using the ERE-TK-Luc reporter as a readout), but Tam (5 μM) by itself had no effect on ER activity (A and B (left)). […] When MCF-7 cells were tested in the absence of E2, ER activity was very low under most conditions (illustrating the requirement for E2 to activate ER), but in the absence of E2, Tam functioned as an ER agonist and caused about a (5-6)-fold increase in ER activity (P<0.001).
FIG. 9 depicts the inhibition of E2-stimulated ER activity in MCF-7 cells by six compounds.
Subconfluent cells in 24-well dishes were transfected overnight with 0.25 μg of each indicated vector plus the ERE-TK-Luc reporter in serum-free DMEM containing Lipofectamine2000 (Life Technologies). The total transfected DNA was kept constant by addition of the appropriate control vector. […]

C[C@]12CC[C@@H]3c4ccc(O)cc4CC[C@H]3[C@@H]1CC[C@@H]2O [E2, 17β-estradiol]
cathepsin D protein levels after E2 [1]: increased significantly

CCC(=O)[C@@]1(C)CC[C@H]2[C@@H]3CCC4=CC(=O)CCC4=C3CC[C@@]21C [R5020]
stimulation of PR activity [2]: over 20 fold

ER-siRNA: ER-α small interfering RNA, Ambion catalog number 43924220 (sense CAGGCACAUGAGUAACAAATT; antisense UUUGUUACUCAUGUGCCUGAT; chemistry not given here)
reduction of the BRCA1 protein levels [3]: > 75%

CC/C(=C(\c1ccccc1)c1ccc(OCCN(C)C)cc1)c1ccccc1 [Tam, Tamoxifen]
constitutive ER activity in LCC9 cells (ERE-TK-Luc) [4]: no effect
increase in ER activity in the absence of E2 ([5]; absence of E2, P<0.001): 5-6 fold
E2-stimulated ER activity in MCF-7 cells (ERE-TK-Luc) ([5]; with E2): strongly suppressed

— US9603844B2, “Compositions and methods for treating mammary tumors” (GEORGETOWN UNIVERSITY, priority 2012, dated 2017)
